Source: patent US11267800B2, “Cyclohexyl acid triazole azines as LPA antagonists” (BRISTOL-MYERS SQUIBB COMPANY, priority 2017, dated 2022)
Structures can show the parent of a compound that is named as a salt.

Each molecule was assayed against T1, human LPA1 (Homo sapiens, UniProt Q92633) (assay: LPA1 functional antagonist assay (calcium flux)). Details: CHO cells overexpressing human LPA1; inhibition of calcium flux induced by 10 nM LPA; read-out: hLPA1 IC50.
T1 construct: expressed in transfected cells; host or cells: Chinese hamster ovary (CHO) cells
T1 sequence (Q92633 whole entry): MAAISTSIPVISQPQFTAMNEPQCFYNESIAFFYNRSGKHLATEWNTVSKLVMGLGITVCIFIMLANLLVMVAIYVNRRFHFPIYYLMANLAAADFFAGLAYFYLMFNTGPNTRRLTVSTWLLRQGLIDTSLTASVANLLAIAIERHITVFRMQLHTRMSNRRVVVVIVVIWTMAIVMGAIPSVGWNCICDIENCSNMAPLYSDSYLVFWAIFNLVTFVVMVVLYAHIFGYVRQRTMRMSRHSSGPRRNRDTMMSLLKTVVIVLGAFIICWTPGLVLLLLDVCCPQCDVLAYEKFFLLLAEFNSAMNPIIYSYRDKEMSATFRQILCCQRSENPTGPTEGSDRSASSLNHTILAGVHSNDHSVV
Assay type: cell-based
Summary of the method: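 IC50 values come from 4-parameter logistic fits and mark 50% block of the calcium flux evoked by 10 nM LPA. Human LPA1-overexpressing CHO cells were calcium-dye loaded at 37 °C, then given test compound (0.08 nM–5 μM, 0.5% DMSO, HEPES-buffered HBSS with 0.1% fatty-acid-free BSA) for 20 min at room temperature before agonist.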

Structure (SMILES) | IC50 [µM]
CCCCc1cnnc(NCc2c(-c3ccc(O[C@H]4CCC[C@H](C(=O)O)C4)c(C)n3)nnn2C)n1 [Example 193, (1S,3S)-3-((6-(5-(((5-Butyl-1,2,4-triazin-3-yl)amino)methyl)-1-methyl-1H-1,2,3-triazol-4-yl)-2-methylpyridin-3-yl)oxy)cyclohexane-1-carboxylic acid, bis TFA] | 0.0068
CCc1ncnc(NCc2c(-c3ccc(O[C@H]4CCC[C@H](C(=O)O)C4)c(C)n3)nnn2C)n1 [Example 194, (1S,3S)-3-((6-(5-(((4-Ethyl-1,3,5-triazin-2-yl)amino)methyl)-1-methyl-1H-1,2,3-triazol-4-yl)-2-methyl-pyridin-3-yl)oxy)cyclohexane-1-carboxylic acid] | 0.063
CCCc1ncnc(NCc2c(-c3ccc(O[C@H]4CCC[C@H](C(=O)O)C4)c(C)n3)nnn2C)n1 [Example 195, (1S,3S)-3-((2-Methyl-6-(1-methyl-5-(((4-propyl-1,3,5-triazin-2-yl)amino)methyl)-1H-1,2,3-triazol-4-yl)pyridin-3-yl)oxy)cyclohexane-1-carboxylic acid] | 0.225
Cc1ncnc(NCc2c(-c3ccc(O[C@H]4CCC[C@H](C(=O)O)C4)c(C)n3)nnn2C)n1 [Example 196, (1S,3S)-3-((2-Methyl-6-(1-methyl-5-(((4-methyl-1,3,5-triazin-2-yl)amino)methyl)-1H-1,2,3-triazol-4-yl)pyridin-3-yl)oxy)cyclohexane-1-carboxylic acid] | 2.19
CCCCc1ncnc(NCc2c(-c3ccc(O[C@H]4CCC[C@H](C(=O)O)C4)c(C)n3)nnn2C)n1 [Example 199, (1S,3S)-3-((6-(5-(((4-Butyl-1,3,5-triazin-2-yl)amino)methyl)-1-methyl-1H-1,2,3-triazol-4-yl)-2-methyl-pyridin-3-yl)oxy)cyclohexane-1-carboxylic acid] | 0.029
Cc1nc(-c2nnn(C)c2CNc2ncnc(CC(C)C)n2)ccc1O[C@H]1CCC[C@H](C(=O)O)C1 [Example 200, (1S,3S)-3-((6-(5-(((4-Isobutyl-1,3,5-triazin-2-yl)amino)methyl)-1-methyl-1H-1,2,3-triazol-4-yl)-2-methyl-pyridin-3-yl)oxy)cyclohexane-1-carboxylic acid] | 0.077
COc1nc(NCc2c(-c3ccc(O[C@H]4CCC[C@H](C(=O)O)C4)c(C)n3)nnn2C)nc(C2CC2)n1 [Example 201, (1S,3S)-3-((6-(5-(((4-Cyclopropyl-6-methoxy-1,3,5-triazin-2-yl)amino)methyl)-1-methyl-1H-1,2,3-triazol-4-yl)-2-methylpyridin-3-yl)oxy)cyclohexane-1-carboxylic acid, bis TFA Salt] | 0.105
CCOc1nc(NCc2c(-c3ccc(O[C@H]4CCC[C@H](C(=O)O)C4)c(C)n3)nnn2C)nc(C2CC2)n1 [Example 202, (1S,3S)-3-((6-(5-(((4-Cyclopropyl-6-ethoxy-1,3,5-triazin-2-yl)amino)methyl)-1-methyl-1H-1,2,3-triazol-4-yl)-2-methylpyridin-3-yl)oxy) cyclohexane-1-carboxylic acid] | 0.032
CCc1nc(CC)nc(NCc2c(-c3ccc(O[C@H]4CCC[C@H](C(=O)O)C4)c(C)n3)nnn2C)n1 [Example 203, (1S,3S)-3-((6-(5-(((4,6-Diethyl-1,3,5-triazin-2-yl)amino)methyl)-1-methyl-1H-1,2,3-triazol-4-yl)-2-methyl-pyridin-3-yl)oxy)cyclohexane-1-carboxylic acid] | 0.059
CCC(C)Cc1ncnc(NCc2c(-c3ccc(O[C@H]4CCC[C@H](C(=O)O)C4)c(C)n3)nnn2C)n1 (stereo partly drawn) [Example 204, (1S,3S)-3-((2-Methyl-6-(1-methyl-5-(((4-(2-methylbutyl)-1,3,5-triazin-2-yl)amino)methyl)-1H-1,2,3-triazol-4-yl)pyridin-3-yl)oxy)cyclohexane-1-carboxylic acid] | 0.106
Cc1nc(-c2nnn(C)c2CNc2ncnc(CCC(C)C)n2)ccc1O[C@H]1CCC[C@H](C(=O)O)C1 [Example 205, (1S,3S)-3-((6-(5-(((4-Isopentyl-1,3,5-triazin-2-yl)amino)methyl)-1-methyl-1H-1,2,3-triazol-4-yl)-2-methyl-pyridin-3-yl)oxy)cyclohexane-1-carboxylic acid] | 0.04
Cc1nc(-c2nnn(C)c2CNc2ncnc(CCC(C)(C)C)n2)ccc1O[C@H]1CCC[C@H](C(=O)O)C1 [Example 206, (1S,3S)-3-((6-(5-(((4-(3,3-Dimethylbutyl)-1,3,5-triazin-2-yl)amino)methyl)-1-methyl-1H-1,2,3-triazol-4-yl)-2-methylpyridin-3-yl)oxy)cyclohexane-1-carboxylic acid] | 0.12
Cc1nc(-c2nnn(C)c2CNc2ncnc(C3(C)CC3)n2)ccc1O[C@H]1CCC[C@H](C(=O)O)C1 [Example 207, (1S,3S)-3-((2-Methyl-6-(1-methyl-5-(((4-(1-methylcyclopropyl)-1,3,5-triazin-2-yl)amino)methyl)-1H-1,2,3-triazol-4-yl)pyridin-3-yl)oxy) cyclohexane-1-carboxylic acid] | 0.053
CCOc1ncnc(NCc2c(-c3ccc(O[C@H]4CCC[C@H](C(=O)O)C4)c(C)n3)nnn2C)n1 [Example 208, (1S,3S)-3-((6-(5-(((4-Ethoxy-1,3,5-triazin-2-yl)amino)methyl)-1-methyl-1H-1,2,3-triazol-4-yl)-2-methyl-pyridin-3-yl)oxy)cyclohexane-1-carboxylic acid] | 0.089
CCCCc1nc(C)nc(NCc2c(-c3ccc(O[C@H]4CCC[C@H](C(=O)O)C4)c(C)n3)nnn2C)n1 [Example 209, (1S,3S)-3-((6-(5-(((4-Butyl-6-methyl-1,3,5-triazin-2-yl)amino)methyl)-1-methyl-1H-1,2,3-triazol-4-yl)-2-methylpyridin-3-yl)oxy)cyclohexane-1-carboxylic acid] | 0.062
Cc1nc(-c2nnn(C)c2CNc2ncnc(OC3CC3)n2)ccc1O[C@H]1CCC[C@H](C(=O)O)C1 [Example 210, (1S,3S)-3-((6-(5-(((4-cyclopropoxy-1,3,5-triazin-2-yl)amino)methyl)-1-methyl-1H-1,2,3-triazol-4-yl)-2-methylpyridin-3-yl)oxy)cyclohexane-1-carboxylic acid] | 0.102
Cc1nc(-c2nnn(C)c2CNc2ncnc(OC3CCC3)n2)ccc1O[C@H]1CCC[C@H](C(=O)O)C1 [Example 211, (1S,3S)-3-((6-(5-(((4-cyclobutoxy-1,3,5-triazin-2-yl)amino)methyl)-1-methyl-1H-1,2,3-triazol-4-yl)-2-methylpyridin-3-yl)oxy)cyclohexane-1-carboxylic acid] | 0.103
CCCc1cnnc(NCc2c(-c3ccc(O[C@H]4CCC[C@H](C(=O)O)C4)c(C)n3)nnn2C)c1 [Example 212, (1S,3S)-3-((2-Methyl-6-(1-methyl-5-(((5-propylpyridazin-3-yl)amino)methyl)-1H-1,2,3-triazol-4-yl)pyridin-3-yl)oxy)cyclohexane-1-carboxylic acid] | 0.093
CCCc1ncnc(NCCc2c(-c3ccc(O[C@H]4CCC[C@H](C(=O)O)C4)c(C)n3)nnn2C)n1 [Example 213, (1S,3S)-3-((2-Methyl-6-(1-methyl-5-(2-((4-propyl-1,3,5-triazin-2-yl)amino)ethyl)-1H-1,2,3-triazol-4-yl)pyridin-3-yl)oxy)cyclohexane-1-carboxylic acid] | 1.26
Cc1nc(-c2nnn(C)c2CNc2cc(-c3ccccc3)cnn2)ccc1O[C@H]1CCC[C@H](C(=O)O)C1 [Example 214, (1S,3S)-3-((2-Methyl-6-(1-methyl-5-(((5-phenylpyridazin-3-yl)amino)methyl)-1H-1,2,3-triazol-4-yl)pyridin-3-yl)oxy)cyclohexane-1-carboxylic acid] | 0.297
Cc1nc(-c2nnn(C)c2CNc2cc(C3CC3)cnn2)ccc1O[C@H]1CCC[C@H](C(=O)O)C1 [Example 215, (1S,3S)-3-((6-(5-(((5-Cyclopropyl-pyridazin-3-yl)amino)methyl)-1-methyl-1H-1,2,3-triazol-4-yl)-2-methylpyridin-3-yl)oxy)cyclohexane-1-carboxylic acid] | 0.278
Cc1nc(-c2nnn(C)c2CNc2nnc(Cl)cc2C2CC2)ccc1O[C@H]1CCC[C@H](C(=O)O)C1 [Example 216, (1S,3S)-3-((6-(5-(((6-Chloro-4-cyclopropylpyridazin-3-yl)amino)methyl)-1-methyl-1H-1,2,3-triazol-4-yl)-2-methylpyridin-3-yl)oxy) cyclohexane-1-carboxylic acid] | 0.379
Cc1nc(-c2nnn(C)c2CNc2cc(C(C)C)cnn2)ccc1O[C@H]1CCC[C@H](C(=O)O)C1 [Example 217, (1S,3S)-3-((6-(5-(((5-Isopropyl-pyridazin-3-yl)amino)methyl)-1-methyl-1H-1,2,3-triazol-4-yl)-2-methylpyridin-3-yl)oxy)cyclohexane-1-carboxylic acid] | 0.097
Cc1nc(-c2nnn(C)c2CNc2nnccc2OC2CC2)ccc1O[C@H]1CCC[C@H](C(=O)O)C1 [Example 218, (1S,3S)-3-((6-(5-(((4-Cyclopropoxy-pyridazin-3-yl)amino)methyl)-1-methyl-1H-1,2,3-triazol-4-yl)-2-methylpyridin-3-yl)oxy)cyclohexane-1-carboxylic acid] | 0.213
Cc1nc(-c2nnn(C)c2CNc2cc(OC3CC3)cnn2)ccc1O[C@H]1CCC[C@H](C(=O)O)C1 [Example 219, (1S,3S)-3-((6-(5-(((5-Cyclopropoxy-pyridazin-3-yl)amino)methyl)-1-methyl-1H-1,2,3-triazol-4-yl)-2-methylpyridin-3-yl)oxy)cyclohexane-1-carboxylic acid] | 0.138
Cc1nc(-c2nnn(C)c2CNc2cncc(-c3ccccc3)n2)ccc1O[C@H]1CCC[C@H](C(=O)O)C1 [Example 220, (1S,3S)-3-((2-Methyl-6-(1-methyl-5-(((6-phenylpyrazin-2-yl)amino)methyl)-1H-1,2,3-triazol-4-yl)pyridin-3-yl)oxy)cyclohexane-1-carboxylic acid] | 0.03
